This passage reports AC50 and activity change, negative = viability loss results from PubChem BioAssay AID651584 (Broad Institute, 2012).

SMILES strings stand for the structures. “And” between values parts separate entries of the source, which are not always exact repeats. Equal values may be shown once. The source made the active and inactive calls.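 How the source made its calls: active means viability loss whose fitted half-maximal potency is at most twice the top valid dose for that sample; inconclusive means flat curve with 30 to 70% viability loss, or poor fit; inactive means the rest.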

The test system of assay [1] is MALME3 melanoma viability, CellTiter-Glo ATP luminescence, 24 h. The assay is described as follows: MALME3 melanoma cell viability reduction, dose response, orthogonal assay for MITF inhibitor project, CellTiter-Glo luminescence, dry powder, set 5 (AID 651584).
Test in assay [2]: as above
As to conditions: MALME3 melanoma viability, CellTiter-Glo ATP luminescence, 24 h; at 35 µM (top of the series).

As for `O=C1C=C(Nc2ccccc2)C(=O)c2ccccc21`, in assay [1], the AC50 is 5.86 µM and 28.4 µM. As for `NC1=C(NS(=O)(=O)c2ccc(Br)s2)C(=O)c2ccccc2C1=O`, the activity change, negative = viability loss in assay [2] is -3.99% (inactive).
